From ChEMBL document CHEMBL3272258, “Quantitative structure-activity relationships. 1. The modified Free-Wilson approach” (J Med Chem, 1976) come the findings set out here.

Each structure is given as a SMILES string.

The nature of data set [1]: n-octanol-water partition coefficient, log P of the compound. It counts as physicochemical.
In data set [2] the test system is Trichophyton mentagrophytes. In words: Antifungal activity against Trichophyton mentagrophytes assessed as growth inhibition measured for 14 days by tube dilution method. It counts as functional.
The species named for data set [3] is Rattus norvegicus. In words: Antagonist activity at rat adrenergic receptor assessed as inhibition of adrenaline-induced response.
The species named for data set [4] is Rattus norvegicus. In words: Binding affinity to rat thyroid hormone receptor.

Consider `OCC(O)COc1ccccc1Cl` (configuration not stated), for which, in data set [1], the logP was 1.29. Further, the “log(1/C)” value in data set [2] came to 2.31.
For `OCCCOc1ccc(Cl)cc1`, the logP in data set [1] is 2.36. In addition, the “log(1/C)” value in data set [2] was 3.07.
`Cc1cc(Cl)ccc1OCC(O)CO` (configuration not stated) showed a logP in data set [1] of 2.08. Moreover, the “log(1/C)” value in data set [2] turned out to be 2.33.
Turning to `CN(C)CC(Br)c1ccc(F)cc1` (configuration not stated), in data set [3], the log(1/C) was 8.16.
Turning to `Cc1cc(Cl)c(OCC(O)CO)c(Cl)c1` (configuration not stated), the lipophilicity (logP) in data set [1] was found to be 2.4. The “log(1/C)” value in data set [2] amounted to 3.1.
As to `Cc1cccc(C(Br)CN(C)C)c1` (configuration not stated), the log(1/C) in data set [3] was 8.46.
Same read-out and setting: next, `Cc1ccc(C(Br)CN(C)C)cc1` (configuration not stated): 9.3.
Turning to `Cc1cc(Cl)cc(C)c1OCC(C)O` (configuration not stated), the logP in data set [1] was 3.52. Moreover, the “log(1/C)” value in data set [2] was determined as 3.51.
With `NC(Cc1cc(Cl)c(Oc2cc(I)c(O)c(I)c2)c(Cl)c1)C(=O)O` (racemic), the log(activity) in data set [4] is -1.
Regarding `Cc1ccccc1OCCCO`, the logP in data set [1] was 2.34. For the same compound, the “log(1/C)” value in data set [2] stood at 2.79.
On the same counts, the results for `Cc1cc(Cl)ccc1OCC(C)O` (configuration not stated) are 2.84 and 3.3.
Turning to `NC(Cc1cc(I)c(Oc2cc(F)c(O)c(F)c2)c(I)c1)C(=O)O` (racemic), the log(activity) in data set [4] was determined as 0.26.
On the same count and under the same terms, the value for `NC(Cc1cc(I)c(Oc2cc(Cl)c(O)c(Cl)c2)c(I)c1)C(=O)O` (racemic) was -0.05; that for `NC(Cc1cc(I)c(Oc2ccc(O)cc2)c(I)c1)C(=O)O` (racemic) was -0.43.
As for `CC(O)COc1ccc(Cl)cc1` (configuration not stated), the logP in data set [1] came out at 2.16. Also, in data set [2], the “log(1/C)” value is 2.81.
In turn, `Cc1cc(Cl)cc(C)c1OCC(O)CO` (configuration not stated) showed a logP in data set [1] of 2.76. For the same compound, in data set [2], the “log(1/C)” value is on record as 2.76.
In the case of `CN(C)CC(Br)c1ccc(Br)c(Cl)c1` (configuration not stated), the log(1/C) in data set [3] is 9.
For `NC(Cc1cc(Br)c(Oc2cc(I)c(O)c(I)c2)c(Br)c1)C(=O)O` (racemic), the log(activity) in data set [4] was determined as 1.1.
Take `CN(C)CC(Br)c1ccc(F)c(Br)c1` (configuration not stated): the log(1/C) in data set [3] was 8.57.
Take `Cc1ccccc1OCC(C)O` (configuration not stated): in data set [1], the logP is 2.14. The “log(1/C)” value in data set [2] worked out at 2.46.
For the compound `Cc1cc(C(Br)CN(C)C)ccc1Br` (configuration not stated), the log(1/C) in data set [3] was found to be 9.22.
In turn, `Cc1cccc(Cl)c1OCC(C)O` (configuration not stated) came in with a logP in data set [1] of 2.73. For the same compound, the “log(1/C)” value in data set [2] came to 2.7.
In the case of `CN(C)CC(Br)c1ccc(Br)c(Br)c1` (configuration not stated), in data set [3], the log(1/C) worked out at 9.35.
As to `Cc1cccc(Cl)c1OCC(O)CO` (configuration not stated), in data set [1], the logP was determined as 1.97. Besides, in data set [2], the “log(1/C)” value came out at 2.33.
For `OCC(O)COc1c(Cl)cccc1Cl` (configuration not stated) the same measures were 1.88 and 2.37.
`Cc1cc(C(Br)CN(C)C)ccc1Cl` (configuration not stated): in data set [3], the log(1/C) is 8.96.
In data set [4], `NC(Cc1cc(I)c(Oc2cc(Br)c(O)c(Br)c2)c(I)c1)C(=O)O` (racemic) returned a log(activity) of 1.
Same read-out and setting: the value for `NC(Cc1cc(I)c(Oc2ccc(O)c(F)c2)c(I)c1)C(=O)O` (racemic) was 0.38.
As to `Cc1cc(OCCCO)cc(C)c1Cl`, in data set [1], the logP is 3.38. In data set [2], the “log(1/C)” value is 3.93.
For the compound `NC(Cc1cc(Br)c(Oc2cc(Br)c(O)c(Br)c2)c(Br)c1)C(=O)O` (racemic), in data set [4], the log(activity) was -0.29.
Consider `CN(C)CC(Br)c1ccc(Cl)c(Br)c1` (configuration not stated), for which the log(1/C) in data set [3] stood at 8.92.
In data set [1], `Cc1cc(Cl)cc(C)c1OCCCO` came in with a logP of 3.72. Besides, the “log(1/C)” value in data set [2] is given as 3.51.
Turning to `CN(C)CC(Br)c1ccc(F)c(Cl)c1` (configuration not stated), the log(1/C) in data set [3] amounted to 8.19.
In data set [1], `CC(O)COc1ccc(Cl)cc1Cl` (configuration not stated) displayed a logP of 2.75. In addition, the “log(1/C)” value in data set [2] is recorded as 3.35.
For `CN(C)CC(Br)c1ccc(Cl)c(Cl)c1` (configuration not stated), the log(1/C) in data set [3] was determined as 8.89.
For `Cc1cc(OCC(C)O)cc(C)c1Cl` (configuration not stated), in data set [1], the logP was found to be 3.18. Also, the “log(1/C)” value in data set [2] came out at 3.68.
`Cc1cc(OCC(C)O)ccc1Cl` (configuration not stated): the logP in data set [1] is 2.67. For the same compound, in data set [2], the “log(1/C)” value came to 3.3.
In the case of `Cc1ccc(C(Br)CN(C)C)cc1C` (configuration not stated), the log(1/C) in data set [3] was 9.3.
As for `NC(Cc1cc(I)c(Oc2cc(I)c(O)c(I)c2)c(I)c1)C(=O)O` (racemic), the log(activity) in data set [4] came to 2.
On to `CN(C)CC(Br)c1cccc(Cl)c1` (configuration not stated), for which, in data set [3], the log(1/C) worked out at 8.16.
Same read-out and setting: next, `Cc1cc(C(Br)CN(C)C)ccc1F` (configuration not stated): 8.82.
`Cc1cc(Cl)c(OCC(C)O)c(Cl)c1` (configuration not stated) came in with a logP in data set [1] of 3.16. The “log(1/C)” value in data set [2] stood at 3.47.
Regarding `CN(C)CC(Br)c1cccc(I)c1` (configuration not stated), the log(1/C) in data set [3] was 8.4.
On to `Cc1cccc(Cl)c1OCCCO`, for which the logP in data set [1] came out at 2.93. In data set [2], the “log(1/C)” value was found to be 2.78.
On the same counts, the results for `CC(O)COc1c(Cl)cccc1Cl` (configuration not stated) are 2.64 and 3.04.
On to `CN(C)CC(Br)c1cccc(F)c1` (configuration not stated), for which the log(1/C) in data set [3] amounted to 7.52.
Same read-out and setting: next, `CN(C)CC(Br)c1ccc(I)cc1` (configuration not stated): 9.25.
For `NC(Cc1cc(Br)c(Oc2ccc(O)c(I)c2)c(Br)c1)C(=O)O` (racemic), in data set [4], the log(activity) came to 2.11.
As to `OCC(O)COc1ccc(Cl)cc1Cl` (configuration not stated), in data set [1], the logP turned out to be 1.99. Further, the “log(1/C)” value in data set [2] was 2.61.
On the same counts, the results for `Cc1cc(OCC(O)CO)cc(C)c1Cl` (configuration not stated) are 2.42 and 3.24.
On the same counts, the results for `CC(O)COc1ccccc1Cl` (configuration not stated) are 2.05 and 2.84.
Turning to `NC(Cc1cc(I)c(Oc2ccc(O)c(I)c2)c(I)c1)C(=O)O` (racemic), in data set [4], the log(activity) amounted to 2.74.
For `Cc1ccccc1OCC(O)CO` (configuration not stated) [MEPHENESIN], the logP in data set [1] amounted to 1.38. Also, the “log(1/C)” value in data set [2] was 2.26.
On the same counts, the results for `Cc1cc(Cl)c(OCCCO)c(Cl)c1` are 3.36 and 3.67.
On to `CN(C)CC(Br)c1ccc(Br)cc1` (configuration not stated), for which the log(1/C) in data set [3] stood at 8.89.
Still for that read-out and setting: the value for `Cc1ccc(C(Br)CN(C)C)cc1Br` (configuration not stated) was 9.52.
Compound `OCC(O)COc1ccc(Cl)cc1` (configuration not stated) yielded a lipophilicity (logP) in data set [1] of 1.4. Besides, in data set [2], the “log(1/C)” value was found to be 2.31.
Regarding `NC(Cc1cc(Br)c(Oc2ccc(O)c(Br)c2)c(Br)c1)C(=O)O` (racemic), the log(activity) in data set [4] came to 1.64.
Same read-out and setting: next, `NC(Cc1cc(I)c(Oc2cc(F)c(O)c(I)c2)c(I)c1)C(=O)O` (racemic): 1.45.
Take `CN(C)CC(Br)c1cccc(Br)c1` (configuration not stated): the log(1/C) in data set [3] was found to be 8.3.
The same measure, in the same setting: next, `CN(C)CC(Br)c1ccccc1` (configuration not stated): 7.46; `CN(C)CC(Br)c1ccc(Cl)cc1` (configuration not stated): 8.68.
On to `NC(Cc1cc(I)c(Oc2ccc(O)c(Br)c2)c(I)c1)C(=O)O` (racemic), for which, in data set [4], the log(activity) was 2.3.
For the compound `Cc1cc(OCC(O)CO)ccc1Cl` (configuration not stated), the logP in data set [1] was 1.91. Also, the “log(1/C)” value in data set [2] came out at 2.9.

For orientation: logP means a log measure of how a compound divides between an organic and an aqueous phase.
